{"source": "patent US20120238532A1", "about": "“TREATMENT OF HUMAN OSTEOSARCOMA” (CEDARS-SINAI MEDICAL CENTER, priority 2009, published 2012)", "key": {"MG-63 cells": {"test_system": "MG-63 cells", "assay": "Annexin V-FITC apoptosis assay, MG-63", "type": "cell-based, human", "details": "at ED50, 72 hours of exposure", "experimental": "Cells were harvested and fixed with 70% ethanol at regular time intervals. Fixed cells were stained with propidium iodide (PI) for flow cytometry analysis using BD FACScan (BD Biosciences, San Jose, Calif.). Distribution of cell cycle was analyzed by ModFit LT V2.0 software (Verity Software House, Topsham, Me.). […] After 24, 48, and 72 hours of exposure, cells were harvested and stained with PI and fluorescein isothiocyanate (FITC) using Annexin V-FITC apoptosis detection kit (BD Biosciences) according to the manufacturer's protocol. Cells were subjected to flow cytometry analysis within one hour of staining."}, "SAOS-2 cells": {"test_system": "SAOS-2 cells", "assay": "Morphological changes (crystal violet staining), SAOS-2", "type": "cell-based, human", "experimental": "FIG. 2. (A) Graphical representation of the effect of CuB on MG-63 and SAOS-2 cells. Cells were exposed to CuB at their ED50 (70 nM for MG-63 and 50 nM for SAOS-2 cells). Time-dependent antiproliferative activity of CuB on MG-63 and SAOS-2 cells measured by pulse-exposure experiments. Cells were exposed to CuB for 2, 9, or 20 hours, washed extensively, and cultured in the absence of CuB for an additional 24, 48, and 72 hours. Cell growth was measured by MTT assay. Measurements were repeated in triplicates. Data represent mean±SD. Asterisks (**) represent p<0.001 vs DMSO control by t-test. (B) Morphological changes of MG-63 and SAOS-2 cells after exposure to cucurbitacin B. Cells with normal morphology (top) were compared to rounded cells (middle) and multinucleated cells (bottom). […] Representative cells are shown. 400×; scale bar=50 μm. (C) Graphical representation of G2/M cell cycle arrest after 20 hours of exposure to cucurbitacin B. Cells were stained with propidium iodide (PI) and analyzed by FACS. (D) Graphical representation of apoptosis after 72 hours of exposure to cucurbitacin B. Cells were stained with PI and Annexin V-FITC, and analyzed by FACS."}, "ERK protein": {"target": "T1, ERK protein (Homo sapiens, UniProt P28482)", "T1 construct": "confluent MG-63 cells were harvested and lysed with lysis buffer; endogenous in cells; host or cells: MG-63 whole-cell lysate", "T1 sequence (P28482 2-360 limits assumed)": "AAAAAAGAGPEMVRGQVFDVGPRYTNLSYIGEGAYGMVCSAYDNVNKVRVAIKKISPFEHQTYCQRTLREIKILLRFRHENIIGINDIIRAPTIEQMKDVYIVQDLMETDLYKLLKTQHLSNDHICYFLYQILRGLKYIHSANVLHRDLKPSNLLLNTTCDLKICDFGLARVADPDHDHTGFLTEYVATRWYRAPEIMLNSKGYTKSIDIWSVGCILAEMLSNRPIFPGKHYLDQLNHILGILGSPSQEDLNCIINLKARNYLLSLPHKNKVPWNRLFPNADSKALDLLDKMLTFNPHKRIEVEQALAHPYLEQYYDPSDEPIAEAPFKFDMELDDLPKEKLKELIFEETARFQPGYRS", "assay": "DARTS analysis, ERK", "type": "binding", "details": "MG-63 lysates; data not shown"}, "ERK": {"test_system": "ERK", "assay": "Western blotting, ERK phosphorylation", "type": "cell-based, human", "details": "MG-63 and SAOS-2 cells", "experimental": "(§1) Changes in protein level by CuB were checked by Western blotting. […] After 2, 9, and 20 hours of exposure, cells were harvested and immediately lysed with RIPA buffer (Millipore—Upstate, Temecula, Calif.) supplemented with protease inhibitor cocktail (Roche, San Francisco, Calif.), 0.5 mM PMSF (Roche), and 50 mM NaF (Sigma). After 20 minutes of incubation on ice, protein concentrations were measured by Bradford assay with Bio Rad protein assay solution (Bio-Rad, Hercules, Calif.) and samples were adjusted to the same protein concentration. Samples were mixed with 2× Laemmli sample buffer (Bio-Rad) with 5% β-mercaptoethanol (Sigma) and incubated at 95° C. for 10 min to denature the protein. After brief incubation on ice, proteins were separated by SDS-PAGE, transferred to nitrocellulose membrane (Sigma), and blotted with antibodies from either Cell Signaling Technology (Danvers, Mass.) or Santa Cruz Biotechnology (Santa Cruz, Calif.). Target proteins were visualized by Supersignal West Dura Substrate (Thermo-Pierce, Rockford, Ill.). GAPDH protein was used as a loading control."}, "phospho-c-Jun and c-Fos": {"test_system": "phospho-c-Jun and c-Fos", "assay": "Western blotting, phospho-c-Jun and c-Fos", "type": "cell-based, human", "details": "MG-63 and SAOS-2 cells", "experimental": "as §1"}, "cyclin D1": {"test_system": "cyclin D1", "assay": "Western blotting, cyclin D1", "type": "cell-based, human", "details": "MG-63 cells", "experimental": "as §1"}, "[1]": {"test_system": "poly ADP-ribose polymerase (PARP)", "assay": "Western blotting, PARP cleavage", "type": "cell-based, human", "details": "MG-63 and SAOS-2 cells", "experimental": "as §1"}, "MG-63 xenografts": {"test_system": "MG-63 xenografts", "assay": "Immunohistochemistry of xenografts (HE, Ki-67, TUNEL)", "type": "in vivo, mice", "details": "LD-CuB 0.5 mg/kg; day 35", "text": "(§2) At autopsy, tumors and internal organs including liver, spleen, kidneys were excised, weighed, and then fixed in 10% PBS-buffered formalin and maintained in 70% ethanol. For IHC, fixed tumors and organs were embedded in paraplast (Oxford Labware, St. Louis, Mo.), cut in 6 μm thick sections, and stained with hematoxylin and eosin (HE) for histopathological examination.\nFor Ki-67 proliferation assay, tumor sections were deparaffinized with xylene and rehydrated through graded ethanol. Endogenous peroxidase activity was blocked with 3% hydrogen peroxide in methanol. […] After incubation, tumor sections were stained with diaminobenzidine (DAB) and counterstained with hematoxylin. Terminal deoxynucleotidyl transferase dUTP nick end labeling (TUNEL) apoptosis assay was performed using ApopTaq Plus Peroxidase In Situ Apoptosis Kit (Millipore) according to the manufacturer's protocol. Percent positive cells in representative microscopic fields were counted using ImageJ (17)."}, "Organ weight in mice": {"assay": "Organ weight in mice", "type": "in vivo", "details": "day 35", "text": "as §2"}, "Blood counts in mice": {"assay": "Blood counts in mice", "type": "in vivo", "details": "day 35", "procedure": "(§3) Whole blood samples were obtained by submandibular bleeding and serum samples were harvested with serum separator tubes (BD Biosciences). Blood count and serum chemistry results were obtained by the Hemagen Analyst Benchtop Chemistry System (Hemagen Diagnostics, Inc. Columbia, Md.). Colony-forming cell (CFC) assays were performed as previously described (18)."}, "Serum chemistry in mice": {"assay": "Serum chemistry in mice", "type": "in vivo", "details": "day 35", "procedure": "as §3"}, "mTOR": {"target": "mTOR (Homo sapiens, UniProt P42345)", "assay": "Western blotting, mTOR phosphorylation", "type": "cell-based", "set-up": "endogenous in cells; host or cells: MG-63 and SAOS-2 cells", "details": "MG-63 and SAOS-2 cells; at ED50, 2, 9, or 20 hours", "experimental": "as §1"}}}
{"smiles": "CC(=O)OC(C)(C)/C=C/C(=O)[C@](C)(O)[C@H]1[C@H](O)C[C@@]2(C)[C@@H]3CC=C4[C@H](C[C@H](O)C(=O)C4(C)C)[C@]3(C)C(=O)C[C@]12C", "note": "[CuB, cucurbitacin B]", "values": [{"measurement": "apoptotic cells", "setting": "MG-63 cells", "result": 44, "unit": "%"}, {"measurement": "morphological changes", "setting": "SAOS-2 cells; 2 hour exposure", "result": "Rapid loss of pseudopodia and rounding"}, {"measurement": "morphological changes", "setting": "SAOS-2 cells; 9 hour-exposure", "result": "multinuclearity which was not reversed by CuB removal"}, {"measurement": "protection of ERK protein (DARTS)", "setting": "ERK protein", "result": "could not find any evidence that the ERK protein was protected by CuB"}, {"measurement": "ERK phosphorylation", "setting": "ERK", "result": "inhibited ERK phosphorylation without changing the total levels of ERK in both cells"}, {"measurement": "phospho-c-Jun level and c-Fos expression", "setting": "phospho-c-Jun and c-Fos", "result": "Decreased level of phospho-c-Jun and subsequent decrease in c-Fos expression"}, {"measurement": "levels of cyclin D1", "setting": "cyclin D1", "result": "Decrease in the levels of cyclin D1 occurred in MG-63"}, {"measurement": "PARP cleavage", "setting": "[1]", "result": "showed cleavage of the precursor molecules in both cells"}, {"measurement": "HE-stained tumors", "setting": "MG-63 xenografts", "result": "decreased tumor area and smaller blood vessels"}, {"measurement": "Kidney organ weight", "setting": "Organ weight in mice; HD-CuB 1.0 mg/kg", "result": "370 ± 1", "unit": "mg"}, {"measurement": "Liver organ weight", "setting": "Organ weight in mice; HD-CuB 1.0 mg/kg", "result": "1260 ± 141", "unit": "mg"}, {"measurement": "Spleen organ weight", "setting": "Organ weight in mice; HD-CuB 1.0 mg/kg", "result": "110 ± 1", "unit": "mg"}, {"measurement": "Kidney organ weight", "setting": "Organ weight in mice; LD-CuB 0.5 mg/kg", "result": "360 ± 1", "unit": "mg"}, {"measurement": "Liver organ weight", "setting": "Organ weight in mice; LD-CuB 0.5 mg/kg", "result": "1250 ± 60", "unit": "mg"}, {"measurement": "Spleen organ weight", "setting": "Organ weight in mice; LD-CuB 0.5 mg/kg", "result": "117 ± 6", "unit": "mg"}, {"measurement": "Basophils", "setting": "Blood counts in mice; HD-CuB 1.0 mg/kg", "result": "0.05 ± 0.07", "unit": "K/μl"}, {"measurement": "Eosinophils", "setting": "Blood counts in mice; HD-CuB 1.0 mg/kg", "result": "0.15 ± 0.07", "unit": "K/μl"}, {"measurement": "Hb", "setting": "Blood counts in mice; HD-CuB 1.0 mg/kg", "result": "10.10 ± 0.42", "unit": "g/dL"}, {"measurement": "Lymphocytes", "setting": "Blood counts in mice; HD-CuB 1.0 mg/kg", "result": "2.90 ± 0.71", "unit": "K/μl"}, {"measurement": "Monocytes", "setting": "Blood counts in mice; HD-CuB 1.0 mg/kg", "result": "0.35 ± 0.07", "unit": "K/μl"}, {"measurement": "Neutrophills", "setting": "Blood counts in mice; HD-CuB 1.0 mg/kg", "result": "2.10 ± 0.42", "unit": "K/μl"}, {"measurement": "Platelets", "setting": "Blood counts in mice; HD-CuB 1.0 mg/kg", "result": "651 ± 52.33", "unit": "K/μl"}, {"measurement": "RBCs", "setting": "Blood counts in mice; HD-CuB 1.0 mg/kg", "result": "7.78 ± 0.45", "unit": "M/μl"}, {"measurement": "WBCs", "setting": "Blood counts in mice; HD-CuB 1.0 mg/kg", "result": "5.55 ± 1.34", "unit": "K/μl"}, {"measurement": "Basophils", "setting": "Blood counts in mice; LD-CuB 0.5 mg/kg", "result": "0.00 ± 0.00", "unit": "K/μl"}, {"measurement": "Eosinophils", "setting": "Blood counts in mice; LD-CuB 0.5 mg/kg", "result": "0.01 ± 0.01", "unit": "K/μl"}, {"measurement": "Hb", "setting": "Blood counts in mice; LD-CuB 0.5 mg/kg", "result": "9.60 ± 0.85", "unit": "g/dL"}, {"measurement": "Lymphocytes", "setting": "Blood counts in mice; LD-CuB 0.5 mg/kg", "result": "2.63 ± 0.24", "unit": "K/μl"}, {"measurement": "Monocytes", "setting": "Blood counts in mice; LD-CuB 0.5 mg/kg", "result": "0.18 ± 0.03", "unit": "K/μl"}, {"measurement": "Neutrophills", "setting": "Blood counts in mice; LD-CuB 0.5 mg/kg", "result": "1.42 ± 0.30", "unit": "K/μl"}, {"measurement": "Platelets", "setting": "Blood counts in mice; LD-CuB 0.5 mg/kg", "result": "742 ± 115.97", "unit": "K/μl"}, {"measurement": "RBCs", "setting": "Blood counts in mice; LD-CuB 0.5 mg/kg", "result": "7.21 ± 1.00", "unit": "M/μl"}, {"measurement": "WBCs", "setting": "Blood counts in mice; LD-CuB 0.5 mg/kg", "result": "4.23 ± 0.04", "unit": "K/μl"}, {"measurement": "CK", "setting": "Serum chemistry in mice; HD-CuB 1.0 mg/kg", "result": "156.0 ± 33.9", "unit": "U/l"}, {"measurement": "albumin", "setting": "Serum chemistry in mice; HD-CuB 1.0 mg/kg", "result": "3.4 ± 0.1", "unit": "g/dL"}, {"measurement": "bilirubin", "setting": "Serum chemistry in mice; HD-CuB 1.0 mg/kg", "result": "0.06 ± 0.00", "unit": "mg/dL"}, {"measurement": "cholesterol", "setting": "Serum chemistry in mice; HD-CuB 1.0 mg/kg", "result": "172.0 ± 8.5", "unit": "mg/dL"}, {"measurement": "creatine", "setting": "Serum chemistry in mice; HD-CuB 1.0 mg/kg", "result": "0.42 ± 0.25", "unit": "mg/dL"}, {"measurement": "globulin", "setting": "Serum chemistry in mice; HD-CuB 1.0 mg/kg", "result": "1.6 ± 0.2", "unit": "g/dL"}, {"measurement": "total protein", "setting": "Serum chemistry in mice; HD-CuB 1.0 mg/kg", "result": "5.0 ± 0.1", "unit": "g/dL"}, {"measurement": "uric acid", "setting": "Serum chemistry in mice; HD-CuB 1.0 mg/kg", "result": "5.5 ± 0.6", "unit": "mg/dL"}, {"measurement": "CK", "setting": "Serum chemistry in mice; LD-CuB 0.5 mg/kg", "result": "140.5 ± 70.0", "unit": "U/l"}, {"measurement": "albumin", "setting": "Serum chemistry in mice; LD-CuB 0.5 mg/kg", "result": "3.1 ± 0.1", "unit": "g/dL"}, {"measurement": "bilirubin", "setting": "Serum chemistry in mice; LD-CuB 0.5 mg/kg", "result": "0.09 ± 0.04", "unit": "mg/dL"}, {"measurement": "cholesterol", "setting": "Serum chemistry in mice; LD-CuB 0.5 mg/kg", "result": "147.0 ± 5.7", "unit": "mg/dL"}, {"measurement": "creatine", "setting": "Serum chemistry in mice; LD-CuB 0.5 mg/kg", "result": "0.29 ± 0.05", "unit": "mg/dL"}, {"measurement": "globulin", "setting": "Serum chemistry in mice; LD-CuB 0.5 mg/kg", "result": "0.7 ± 0.9", "unit": "g/dL"}, {"measurement": "total protein", "setting": "Serum chemistry in mice; LD-CuB 0.5 mg/kg", "result": "3.7 ± 1.0", "unit": "g/dL"}, {"measurement": "uric acid", "setting": "Serum chemistry in mice; LD-CuB 0.5 mg/kg", "result": "3.7 ± 0.3", "unit": "mg/dL"}, {"measurement": "mTOR phosphorylation at S2448 and S2481", "setting": "mTOR", "result": "inhibition of mTOR phosphorylation at S2448 and S2481 without affecting the total level of mTOR"}]}
